Measurements taken from patent publication US20200281956A1, “ANTIBACTERIAL COMPOSITION CONTAINING A DEOXYHEXOSE ALKYL MONOACETAL OR MONOETHER” (TEREOS STARCH & SWEETENERS BELGIUM, priority 2015, published 2020).

Experiments:
esterases = settings: cited from earlier work
E. faecium = test: MIC on E. faecium enterococcal strains (microplate dilution, CLSI); format: cell-based, Enterococcus faecium
Source text: (§1) The strains tested are reference strains and cultures that are multi-antibiotic resistant; these are clinical strains that were isolated at the “Hospice de Lyon” and are as follows: • Staphylococcus S. aureus: ATCC® 29213™, ATCC 25923, • Methicillin-resistant S. aureus staphylococcus strains (Lac-Deleo USA 300), (MU 3), (HT 2004-0012), LY 199-0053, (HT 2002-0417), (HT 2006-1004), • Daptomycin-resistant S. aureus staphylococcus strains (ST 2015-0188) (ST 2014 1288), (ST 2015-0989). • Enterococci: E. faecalis (ATCC® 29212™, clinical strains of E. faecalis enterococcus, isolated from urine: strain 015206179901 (hereinafter 9901), strain 015205261801 (hereinafter 1801) • Enterococci: E. faecium (CIP 103510), clinical strains of E. faecium enterococcus: Van A 0151850763 (hereinafter Van A); strain 015 205731401 (hereinafter 1401), • Listeria: L. monocytogenes (CIP 103575), clinical strains isolated from blood culture (015189074801, LM1), strain isolated from cerebrospinal fluid (015170199001, LM2), clinical strain isolated from blood culture (015181840701, LM3).
(§2) The cultures studied, freshly isolated (after incubation on blood agar at 37° C. for 18 h), are taken up in sterile water (10 ml) until a 0.5 McFarland (Mc), i.e. 1 to 2×10^8 CFU (bacteria)/cm^3, suspension is obtained. The bacterial suspension was then diluted in order to obtain a final concentration of 1×10^6 CFU/cm^3.
(§3) Each well contains a final identical amount of Mueller-Hinton medium (rich medium enabling bacterial culture) and of bacteria of 0.5×10^6 CFU/cm^3.
(§4) The compounds of interest to be tested are dissolved in ethanol or DMSO at 25 mg/ml before being diluted, with the dilution being doubled each time, to different concentrations. […]
(§5) The minimum inhibitory […] (MIC) are determined on Gram-positive bacterial strains according to the recommendations of the “Clinical Laboratory Standards Institute” (Clinical-Laboratory-Standards-Institute, 6th ed. Approved standard M100-S17. CLSI, Wayne, Pa., 2007). […]

S. aureus [1] = test: MIC on S. aureus staphylococcal strains (microplate dilution, CLSI); format: cell-based, Staphylococcus aureus
Source text: as §1, §2, §3
The compounds of interest to be tested are dissolved in ethanol or DMSO at 25 mg/ml before being diluted, with the dilution being doubled each time, to different concentrations. On the multi-well plate, a first series was provided comprising the culture medium without the compound of interest to be tested. This corresponds to the growth control (control wells). These controls serve as a reference for comparing bacterial growth with those of the following wells comprising different concentrations of the compound of interest to be tested. The second series of wells comprises the parent solution of the compound of interest to be tested for a concentration in the well of 256 mg/l (7 mM). Each series of wells was diluted, with the dilution being doubled each time, until the last series for a final concentration of 0.25 mg/l (0.0007 mM). Each concentration is duplicated within the same plate. The plate is incubated for 18 h at 37° C. […] In the case of antibacterial activity, bacterial growth is inhibited which is reflected by the absence of appearance of cloudiness or bacterial pellet.
The minimum inhibitory […] (MIC) are determined on Gram-positive bacterial strains according to the recommendations of the “Clinical Laboratory Standards Institute” (Clinical-Laboratory-Standards-Institute, 6th ed. Approved standard M100-S17. CLSI, Wayne, Pa., 2007).
as §2, with “i.e.” for “i.e. 1”, “10^8” for “2×10^8”, “10^6” for “1×10^6”

E. faecalis = test: MIC on E. faecalis enterococcal strains (microplate dilution, CLSI); format: cell-based, Enterococcus faecalis
Source text: as §1, §2, §3, §4, §5

L. monocytogenes [2] = test: MIC on strains of Listeria (microplate dilution, CLSI); format: cell-based, Listeria monocytogenes
Source text: as §1, §2, §3
The compounds of interest to be tested are dissolved in ethanol or DMSO at 25 mg/ml before being diluted, with the dilution being doubled each time, to different concentrations. On the multi-well plate, a first series was provided comprising the culture medium without the compound of interest to be tested. This corresponds to the growth control (control wells). These controls serve as a reference for comparing bacterial growth with those of the following wells comprising different concentrations of the compound of interest to be tested. The second series of wells comprises the parent solution of the compound of interest to be tested for a concentration in the well of 256 mg/l (7 mM). Each series of wells was diluted, with the dilution being doubled each time, until the last series for a final concentration of 0.25 mg/l (0.0007 mM). Each concentration is duplicated within the same plate. The plate is incubated for 18 h at 37° C. […]
as §5

L. monocytogenes [3] = settings: literature, in words; cited from earlier work
S. aureus [4] = settings: literature, in words; cited from earlier work

CCCCCCCCCCCC(=O)OCC(O)CO (stereo not shown) [monolaurin]
degradation / half-life (ester function sensitive to esterases) (esterases): quickly degraded

3-O-Dodecyl-1,4-D-sorbitan, 5-O-dodecyl-1,4-D-sorbitan and 6-O-dodecyl-1,4-D-sorbitan [reference compound]
Minimum inhibitory concentration (MIC) (E. faecium; E. faecium CIP 103510): 16 mg/L | Minimum inhibitory concentration (MIC) (E. faecium; E. faecium clinical strain 1401): 8 mg/L | Minimum inhibitory concentration (MIC) (E. faecium; E. faecium clinical strain Van A): 16 mg/L | Minimum inhibitory concentration (MIC) (S. aureus [1]; S. aureus ATCC 25923, reference strain): 32 mg/L | Minimum inhibitory concentration (MIC) (S. aureus [1]; S. aureus ATCC 29213, reference strain): 32 mg/L | Minimum inhibitory concentration (MIC) (S. aureus [1]; daptomycin-resistant S. aureus ST 2014 1288): 64 mg/L | Minimum inhibitory concentration (MIC) (S. aureus [1]; daptomycin-resistant S. aureus ST 2015-0188): 64 mg/L | Minimum inhibitory concentration (MIC) (S. aureus [1]; daptomycin-resistant S. aureus ST 2015-0989): 256 mg/L | Minimum inhibitory concentration (MIC) (S. aureus [1]; methicillin-resistant S. aureus HT 2002-0417): 32 mg/L | Minimum inhibitory concentration (MIC) (S. aureus [1]; methicillin-resistant S. aureus HT 2004-0012): 32 mg/L | Minimum inhibitory concentration (MIC) (S. aureus [1]; methicillin-resistant S. aureus HT 2006-1004): 32 mg/L | Minimum inhibitory concentration (MIC) (S. aureus [1]; methicillin-resistant S. aureus LY 199-0053): 32 mg/L | Minimum inhibitory concentration (MIC) (S. aureus [1]; methicillin-resistant S. aureus Lac-Deleo USA 300): 32 mg/L | Minimum inhibitory concentration (MIC) (S. aureus [1]; methicillin-resistant S. aureus MU 3): 64 mg/L | Minimum inhibitory concentration (MIC) (E. faecalis; E. faecalis ATCC 29212): 8 mg/L | Minimum inhibitory concentration (MIC) (E. faecalis; E. faecalis clinical strain 1801 (urine)): 8 mg/L | Minimum inhibitory concentration (MIC) (E. faecalis; E. faecalis clinical strain 9901 (urine)): 16 mg/L | Minimum inhibitory concentration (MIC) (L. monocytogenes [2]; L. monocytogenes CIP 103575): 32 mg/L | Minimum inhibitory concentration (MIC) (L. monocytogenes [2]; L. monocytogenes clinical strain LM1 (blood culture)): 16 mg/L | Minimum inhibitory concentration (MIC) (L. monocytogenes [2]; L. monocytogenes clinical strain LM2 (cerebrospinal fluid)): 32 mg/L | Minimum inhibitory concentration (MIC) (L. monocytogenes [2]; L. monocytogenes clinical strain LM3 (blood culture)): 32 mg/L

CCCCCCCCCCCC1OCC2O[C@H](OC)C(O)C(O)[C@H]2O1 (stereo partly drawn) [compound 1d, Methyl 4,6-O-dodecylidene-α-D-galactopyranoside]
melting point: 115 °C

Dodecanoyl sucrose
activity against L. monocytogenes (L. monocytogenes [3]): particularly active | inhibition of the growth of S. aureus (S. aureus [4]): weakly inhibiting the growth
